Source: ChEMBL document CHEMBL3758170, “From indole to pyrrole, furan, thiophene and pyridine: Search for novel small molecule inhibitors of bacterial transcription initiation complex formation” (Bioorg Med Chem, 2016)
The source made the active and inactive calls. The calls are words filed in the database; no cut-off is given here.

Experiments:
Escherichia coli [1] = test: Antibacterial activity against Escherichia coli DH5[alpha] assessed as growth inhibition at 200 uM measured every 10 mins for 16 hrs by FLUOstar Optima plate reader analysis relative to control; assay type: functional; details: for inhibition of growth at 200 µM: read-out: GI
[2] = Solubility of compound in Luria-Bertani medium at 200 uM; assay type: physicochemical
Bacillus subtilis [3] = test: Antibacterial activity against Bacillus subtilis 168 assessed as growth inhibition at 200 uM measured every 10 mins for 16 hrs by FLUOstar Optima plate reader analysis relative to control; assay type: functional; details: for inhibition of growth at 200 µM: read-out: GI
BL21-DE3 = test: Inhibition of Bacillus subtilis C-terminal GST-tagged RNAP beta'-CH expressed in Escherichia coli BL21 (DE3) cells binding interaction with Escherichia coli sigma-70/Bacillus subtilis full length SigmaA2.2 expressed in Escherichia coli C41 (DE3) cells using TMB as substrate at 15 uM preincubated for 1 hr followed by substrate addition by ELISA relative to control
Bacillus subtilis [4] = test: Antibacterial activity against Bacillus subtilis 168 assessed as inhibition of exponential phase of bacterial growth at 200 uM measured every 10 mins for 16 hrs by FLUOstar Optima plate reader analysis relative to control; assay type: functional; details: read-out: GI
Escherichia coli [5] = test: Antibacterial activity against Escherichia coli DH5[alpha] assessed as inhibition of exponential phase of bacterial growth at 200 uM measured every 10 mins for 16 hrs by FLUOstar Optima plate reader analysis relative to control; assay type: functional; details: read-out: GI

Compound | solubility [2] | inhibition of growth at 200 µM (Escherichia coli [1]) [%] | growth inhibition (GI) (Bacillus subtilis [3]) | inhibition (BL21-DE3) | inhibition of growth at 200 µM (Bacillus subtilis [3]) [%] | inhibition of growth at 200 µM (Bacillus subtilis [4]) [%] | growth inhibition (GI) (Escherichia coli [1]) | inhibition of growth at 200 µM (Escherichia coli [5]) [%]
COc1cc(OC)c2c(-c3ccc(Cl)cc3)c[nH]c2c1C(=O)NNC(=O)c1ccc[nH]1 | soluble | – | inactive | inactive | – | – | inactive | –
O=C(N/N=C/c1cc(Br)cs1)c1ccc[nH]1 | soluble | – | – | 27% | – | 73 | – | 51
O=C(N/N=C/c1cccs1)c1ccc[nH]1 | soluble | – | inactive | 20% | – | – | – | 26
COc1cc(OC)c2c(-c3ccc(Br)cc3)c[nH]c2c1C(=O)NNC(=O)c1ccncc1Br | soluble | 14 | – | 3% | – | 52 | – | –
COc1cc(OC)c2c(-c3ccc(Br)cc3)c[nH]c2c1C(=O)NNC(=O)c1ccnc(Cl)c1 | soluble | 15 | inactive | 17% | – | – | – | –
COc1cc(OC)c2c(-c3ccc(Cl)cc3)c[nH]c2c1C(=O)NNC(=O)c1c(OC)cc(OC)c2c(-c3ccc(Cl)cc3)c[nH]c12 | – | – | – | 63% | 30 | – | – | –
COc1cc(OC)c2c(-c3ccc(Cl)cc3)c[nH]c2c1C(=O)N/N=C/c1ccco1 | soluble | – | – | 34% | 7 | – | – | 37
CO[C@H]1/C=C/O[C@@]2(C)Oc3c(C)c(O)c4c(O)c(c(/C=N/N5CCN(C)CC5)c(O)c4c3C2=O)NC(=O)/C(C)=C\C=C\[C@H](C)[C@H](O)[C@@H](C)[C@@H](O)[C@@H](C)[C@H](OC(C)=O)[C@@H]1C [RIFAMPIN] | – | 98 | – | – | 100 | – | – | –
O=C(N/N=C/c1cccs1)c1cccs1 | – | – | inactive | 27% | – | – | – | 56
COc1cnc(Cl)cc1C(=O)NNC(=O)c1c(OC)cc(OC)c2c(-c3ccc(Cl)cc3)c[nH]c12 | soluble | 26 | – | 28% | – | 37 | – | –
O=C(N/N=C/c1ccco1)c1ccnc(Cl)c1 | soluble | 3 | inactive | 32% | – | – | – | –
O=C(N/N=C/c1ccc[nH]1)c1ccc[nH]1 | soluble | 21 | – | 41% | 30 | – | – | –
O=C(N/N=C/c1ccc[nH]1)c1ccnc(Br)c1 | soluble | 53 | inactive | 8% | – | – | – | –
COc1cc(OC)c2c(C)c(C(=O)NNC(=O)c3c(OC)cc(OC)c4c(-c5ccc(Cl)cc5)c[nH]c34)[nH]c2c1 | – | 45 | – | 72% | – | – | – | –
O=C(N/N=C/c1cccs1)c1ccco1 | – | 23 | inactive | 29% | – | – | – | –
O=C(N/N=C/c1ccco1)c1ccco1 | soluble | 18 | inactive | 3% | – | – | – | –
O=C(N/N=C/c1cccs1)c1ccncc1Br | soluble | 18 | – | 8% | 11 | – | – | –
COc1cc(OC)c2c(-c3ccc(Br)cc3)c[nH]c2c1C(=O)NNC(=O)c1ccc[nH]1 | soluble | – | inactive | inactive | – | – | inactive | –

Further lines, with some results ahead:

solubility [2] | Compound | inhibition of growth at 200 µM (Escherichia coli [1]) [%] | growth inhibition (GI) (Bacillus subtilis [3]) | inhibition (BL21-DE3) | inhibition of growth at 200 µM (Bacillus subtilis [3]) [%] | inhibition of growth at 200 µM (Bacillus subtilis [4]) [%] | growth inhibition (GI) (Escherichia coli [1]) | inhibition of growth at 200 µM (Escherichia coli [5]) [%]
soluble | O=C(N/N=C/c1cc(Br)cs1)c1ccco1 | 7 | inactive | inactive | – | – | – | –
soluble | COc1cc(OC)c2c(-c3ccc(Br)cc3)c[nH]c2c1C(=O)N/N=C/c1cccs1 | 29 | inactive | inactive | – | – | – | –
soluble | O=C(N/N=C/c1ccc[nH]1)c1ccncc1Br | 7 | inactive | 9% | – | – | – | –
soluble | COc1cc(OC)c2c(-c3ccc(Cl)cc3)c[nH]c2c1C(=O)NNC(=O)c1ccnc(Cl)c1 | 10 | – | 14% | 17 | – | – | –
soluble | COc1cc(OC)c2c(-c3ccc(Br)cc3)c[nH]c2c1C(=O)NNC(=O)c1ccnc(Br)c1 | – | – | 20% | – | 29 | inactive | –
soluble | COc1cc(OC)c2c(-c3ccc(Cl)cc3)c[nH]c2c1C(=O)NNC(=O)c1ccnc(Br)c1 | – | – | 24% | – | 25 | inactive | –
soluble | COc1cc(OC)c2c(-c3ccc(Br)cc3)c[nH]c2c1C(=O)NNC(=O)c1cccs1 | – | inactive | inactive | – | – | inactive | –
soluble | COc1cc(OC)c2c(-c3ccc(Cl)cc3)c[nH]c2c1C(=O)N/N=C/c1cccs1 | – | inactive | 38% | – | – | inactive | –
soluble | O=C(N/N=C/c1ccc[nH]1)c1cccs1 | 22 | – | 34% | 33 | – | – | –
soluble | O=C(N/N=C/c1ccc[nH]1)c1ccnc(Cl)c1 | 22 | – | 31% | 6 | – | – | –
soluble | COc1cnc(Cl)cc1C(=O)NNC(=O)c1c(OC)cc(OC)c2c(-c3ccc(Br)cc3)c[nH]c12 | 24 | – | 17% | 13 | – | – | –
soluble | COc1cc(OC)c2c(-c3ccc(Cl)cc3)c[nH]c2c1C(=O)NNC(=O)c1cccs1 | – | inactive | inactive | – | – | inactive | –
soluble | COc1cc(OC)c2c(-c3ccc(Br)cc3)c[nH]c2c1C(=O)N/N=C/c1ccc[nH]1 | – | inactive | 46% | – | – | inactive | –
soluble | O=C(N/N=C/c1cccs1)c1ccnc(Cl)c1 | 30 | – | 30% | – | 29 | – | –
soluble | O=C(N/N=C/c1cccs1)c1ccnc(Br)c1 | 59 | – | 6% | 35 | – | – | –
soluble | COc1cc(OC)c2c(-c3ccc(Br)cc3)c[nH]c2c1C(=O)N/N=C/c1ccco1 | 16 | inactive | 33% | – | – | – | –
soluble | O=C(N/N=C/c1ccco1)c1cccs1 | – | – | 18% | 4 | – | – | 50
soluble | COc1cc(OC)c2c(-c3ccc(Cl)cc3)c[nH]c2c1C(=O)NNC(=O)c1ccncc1Br | – | – | 11% | – | 74 | – | 47
soluble | O=C(N/N=C/c1ccc[nH]1)c1ccco1 | – | inactive | 21% | – | – | inactive | –
soluble | O=C(N/N=C/c1ccco1)c1ccc[nH]1 | 3 | inactive | 8% | – | – | – | –
soluble | O=C(N/N=C/c1cc(Br)cs1)c1cccs1 | 23 | inactive | 36% | – | – | – | –
